ChEMBL document CHEMBL5725651, “Guanine analogs as telomerase substrates and telomere length affectors” (2018)

Test: HT3 cells were treated for three days with increasing concentrations of PMPG-diisopropyloxy ester ranging from 0.2 μM to 20 μM. Cells (HT3 RPMI+10% PBS) were incubated with compound for 24 hr after which PSTS primer (phosphorothioate-d(AATCCGTCGAGCAGAGTT (SEQ ID NO: 6) containing a 5′ Cy-5 label) (7.5 μM) and fresh compound are added for an additional 24 hr. Cells were lysed and endogenous telomerase inactivated by heating (15 min, 75° C.). Products were amplified by 30 cycles of PCR under TRAP conditions set forth above and quantified.
Details: HT-3

EC50 [µM]	Structure (SMILES)
10.8	C=C(COCP(=O)(OCOC(=O)OC(C)C)OCOC(=O)OC(C)C)Cn1cnc2c(=O)[nH]c(N)nc21
2.15	CC(C)OC(=O)OCOP(=O)(COC(C)Cn1cnc2c(=O)[nH]c(N)nc21)OCOC(=O)OC(C)C (configuration not stated)
